Results taken from the NIST ThermoML archive (doi:10.1016/j.fluid.2011.09.037).

Assay: osmotic coefficient (dimensionless); mn = molality of the nth substance listed, in mol/kg
Details: 323.15 K, 101 kPa, Liquid, vapor pressure osmometer

CCCCO [butan-1-ol] + CCCCCC[n+]1ccn(C)c1.O=S(=O)([N-]S(=O)(=O)C(F)(F)F)C(F)(F)F
Details | osmotic coefficient
m1 = 0.0466 | 0.746
m1 = 0.0832 | 0.604
m1 = 0.1034 | 0.574
m1 = 0.1973 | 0.461
m1 = 0.2989 | 0.411
m1 = 0.3965 | 0.362
m1 = 0.4907 | 0.343
m1 = 0.6881 | 0.295
m1 = 0.9952 | 0.245
m1 = 1.304 | 0.212
m1 = 1.685 | 0.2
m1 = 2.109 | 0.18
m1 = 2.479 | 0.172
m1 = 2.947 | 0.161
m1 = 3.291 | 0.162

CCC(C)O (configuration not stated) [butan-2-ol] + CCCCCC[n+]1ccn(C)c1.O=S(=O)([N-]S(=O)(=O)C(F)(F)F)C(F)(F)F
Details | osmotic coefficient
m1 = 0.0478 | 0.834
m1 = 0.076 | 0.769
m1 = 0.1019 | 0.659
m1 = 0.2141 | 0.532
m1 = 0.3112 | 0.443
m1 = 0.4257 | 0.403
m1 = 0.5354 | 0.369
m1 = 0.72 | 0.324
m1 = 1.008 | 0.285
m1 = 1.311 | 0.251
m1 = 1.722 | 0.231
m1 = 2.107 | 0.219
m1 = 2.477 | 0.214
m1 = 2.87 | 0.195

CCCCCO [pentan-1-ol] + CCCCCC[n+]1ccn(C)c1.O=S(=O)([N-]S(=O)(=O)C(F)(F)F)C(F)(F)F
Details | osmotic coefficient
m1 = 0.0502 | 0.467
m1 = 0.0781 | 0.411
m1 = 0.1123 | 0.372
m1 = 0.1977 | 0.313
m1 = 0.3009 | 0.267
m1 = 0.4054 | 0.24
m1 = 0.4903 | 0.214
m1 = 0.8026 | 0.178
m1 = 1.11 | 0.163
m1 = 1.368 | 0.149
m1 = 1.723 | 0.12
m1 = 2.211 | 0.095
m1 = 2.657 | 0.096
m1 = 3.231 | 0.091

CCCO [propan-1-ol] + CCCCCC[n+]1ccn(C)c1.O=S(=O)([N-]S(=O)(=O)C(F)(F)F)C(F)(F)F
Details | osmotic coefficient
m1 = 0.0281 | 0.906
m1 = 0.0539 | 0.866
m1 = 0.081 | 0.797
m1 = 0.1046 | 0.716
m1 = 0.2004 | 0.621
m1 = 0.3018 | 0.523
m1 = 0.4154 | 0.46
m1 = 0.519 | 0.445
m1 = 0.8326 | 0.386
m1 = 1.14 | 0.342
m1 = 1.432 | 0.316
m1 = 1.742 | 0.306
m1 = 2.247 | 0.288
m1 = 2.739 | 0.265
m1 = 3.188 | 0.247

CC(C)O [propan-2-ol] + CCCCCC[n+]1ccn(C)c1.O=S(=O)([N-]S(=O)(=O)C(F)(F)F)C(F)(F)F
Details | osmotic coefficient
m1 = 0.0549 | 0.902
m1 = 0.0805 | 0.876
m1 = 0.0992 | 0.841
m1 = 0.2037 | 0.678
m1 = 0.3092 | 0.572
m1 = 0.4087 | 0.524
m1 = 0.5171 | 0.485
m1 = 0.8189 | 0.429
m1 = 1.111 | 0.387
m1 = 1.405 | 0.355
m1 = 1.712 | 0.321
m1 = 2.193 | 0.314
m1 = 2.655 | 0.304
m1 = 3.207 | 0.294
